Measured values as given in patent US11028074B2, “CD73 inhibitors” (Eli Lilly and Company, priority 2018, dated 2021).
Values belong to the compound of their own block, whether it stands above or below them.

Assays:
CD73 = target: T1, CD73 (Homo sapiens, UniProt P21589); assay: LC/MS Based Assay for Measuring CD73 Activity in Human Serum; assay type: biochemical; parameters: from tissue; host or cells: normal human serum; conditions: concentrations corrected with the fraction unbound, read-out: EC50, inhibition of CD73 activity in human serum
T1 sequence (P21589 27-549): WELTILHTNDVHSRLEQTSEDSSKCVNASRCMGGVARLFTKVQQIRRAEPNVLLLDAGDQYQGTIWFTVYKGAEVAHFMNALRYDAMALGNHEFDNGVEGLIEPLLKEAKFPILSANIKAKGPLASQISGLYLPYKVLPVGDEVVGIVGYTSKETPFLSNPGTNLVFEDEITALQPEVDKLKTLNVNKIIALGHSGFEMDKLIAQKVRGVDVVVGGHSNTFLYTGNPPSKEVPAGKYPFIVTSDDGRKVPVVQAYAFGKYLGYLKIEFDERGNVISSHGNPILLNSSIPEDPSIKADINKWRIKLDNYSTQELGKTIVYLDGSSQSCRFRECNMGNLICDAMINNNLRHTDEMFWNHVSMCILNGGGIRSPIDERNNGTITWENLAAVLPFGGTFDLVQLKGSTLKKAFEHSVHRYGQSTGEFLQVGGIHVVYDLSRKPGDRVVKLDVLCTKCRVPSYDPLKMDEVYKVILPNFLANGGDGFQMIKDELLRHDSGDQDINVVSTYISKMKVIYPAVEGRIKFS
Procedure: Fresh normal human blood is centrifuged at 1,500 g for 15 minutes at room temperature, and the upper fraction containing serum is collected. […] After incubation on ice for 60 min, […] (50 uM) is added to each well in the plate, and the plate is incubated at room temperature for 15 min. The plate is then placed on dry ice with addition of 200 uL/well of 17.3 TCA followed by shaking at 26 fps for 3 min with a plate-shaking machine (Qiagen). The plate is then centrifuged at 2940 g for 20 min at 4° C. […] After further centrifugation at 2940 g for 20 min at 4° C., 200 ul/well of the supernatant is used for analysis of ^13C10-^15N5-adenosine, ^13C10-^15N5-inosine and ^15N5-hypoxanthine by LC/MS as described above. For EC50 calculations, the concentrations of the CD73 inhibitor in the serum are corrected with the fraction unbound (%) derived from in silico models or experimentally.

human PBMCs or CD4 cells = assay: T Cell Suppression Assay (rescue of adenosine-mediated inhibition of T cell proliferation); assay type: cell-based; conditions: for Rescue of T cell proliferation (%): AMP in medium, 68-70 hr
Procedure: Cells are placed in a 37° C. water bath for 10 min to pre-activate T cells. […] To test compounds using PBMCs, test compounds at various concentrations are prepared in cell normal growth media (125 μL) containing 400-600 μM AMP. […] Treated cells are cultured at 37° C., 5% CO2 for 68-70 hr.
Medium (100 μl) containing CD4 cells is transferred to and filtered through AcroPrep plates to another plate via centrifugation at 1500 g for 2 hr. Filtered medium (50 μl/well) is mixed with the same volume of 80% methanol, 1% NH4OH, and internal standards (250 ng/mL ^13C5-AMP and 250 ng/mL ^13C5-Adenosine) for LC-MS analysis of metabolites.
Treated PBMCs or CD4 cells are collected and stained for Flow Cytometry to quantify T cell proliferation.
Flow data are acquired by BD FACS Verse. Each fluorescence channel is appropriately compensated. The data are processed on FloJo ver. 7.6.5 with the following gating strategy: lymphocytes gated on FSC vs SSC dot plot; viable cells of lymphocytes gated on SSC vs Zombie Aqua dot plot; CD3 cells of viable lymphocytes gated on APC-Cy7 vs Zombie Aqua dot plot1; CD4 cell and CD8 cells of CD3 cells gated on APC vs Pacific Blue dot plot; CD4 and CD8 cells further gated on APC vs CFSE(FITC) and Pacific Blue vs CFSE(FITC) dot plots. Proliferation of CD4 and CD8 cells is analyzed by a proliferation tool.

murine CD73 = target: T2, murine CD73 (Mus musculus, UniProt Q61503); assay: Ex Vivo Target Inhibition Assay (mouse whole blood after oral dosing); assay type: in vivo; conditions: read-out: Inhibition of AMP conversion to adenosine, Inhibition (%)
T2 construct: from tissue; host or cells: mouse whole blood (heparin) from orally dosed animals
T2 sequence (Q61503 29-551): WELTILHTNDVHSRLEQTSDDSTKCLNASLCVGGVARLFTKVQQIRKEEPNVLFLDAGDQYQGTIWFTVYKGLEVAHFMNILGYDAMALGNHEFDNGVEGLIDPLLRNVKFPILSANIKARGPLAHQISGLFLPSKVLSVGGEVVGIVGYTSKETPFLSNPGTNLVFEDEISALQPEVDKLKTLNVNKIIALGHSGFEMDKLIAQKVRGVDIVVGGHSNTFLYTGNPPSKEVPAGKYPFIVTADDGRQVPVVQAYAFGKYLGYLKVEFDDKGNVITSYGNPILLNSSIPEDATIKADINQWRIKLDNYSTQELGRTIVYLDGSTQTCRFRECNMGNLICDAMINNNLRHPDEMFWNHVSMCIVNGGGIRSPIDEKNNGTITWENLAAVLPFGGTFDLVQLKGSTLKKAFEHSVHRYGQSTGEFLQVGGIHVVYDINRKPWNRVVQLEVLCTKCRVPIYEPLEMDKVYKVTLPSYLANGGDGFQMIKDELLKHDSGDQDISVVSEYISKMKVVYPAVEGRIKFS
Procedure: The animals (6/group) are dosed orally with each compound formulated in 20% HPBCD (2-hydroxypropyl-β-cyclodextrin), pH 2 after tumors reach to approximately 400 mm^3.

CD4^+ T cells = assay: Cytokine Analysis (ELISA); assay type: cell-based, human
Procedure: CFSE labeled human PBMCs (600,000 cells/mL) or CD4 cells (500,000 cells/mL) are mixed with Dynabeads® Human T-Activator CD3/CD28 (Gibco, cat #11131D) at a ratio of 1:1 of cell/beads and human IL-2 (60 IU/ml, Roche, cat #: 11011456001). Cells are placed in a 37° C. water bath for 10 min to pre-activate T cells. PBMCs (125 μl/well) or CD4 cells (100 μl/well) are transferred to a 96 well plate (Costar 3799, Corning Inc.). To test compounds using PBMCs, test compounds at various concentrations are prepared in cell normal growth media (125 μL) containing 400-600 μM AMP. To test compounds using CD4 cells, test compounds at various concentrations are prepared in cell normal growth media (100 μL) containing 200-250 μM AMP. Treated cells are cultured at 37° C., 5% CO2 for 68-70 hr.
Medium (160 μl) containing treated PBMCs is transferred to a plate and the remaining medium used for cytokine assay is transferred to AcroPrep 96 plates (AcroPrep 96 Filter plate, Omega 3K NTRL 350 ul well, Pall Life Science Cat #8033) for preparation of samples for LC-MS analysis of metabolites.
Culture medium from treated PBMCs is diluted at 1:7.5, 1:2.5 and 1:50 with 1× ELISA/ELISPOT Diluent from cytokine ELISA kits and analyzed for TNFα using Human TNF alpha ELISA Ready-SET-GO! Kit (eBioscience cat #88-7346-22), IL-1β using Human IL-1β ELISA ready-SET-GO! Kit (2nd generation) (eBioscience, cat #88-7261-22) and IFNγ using Human IFN gamma ELISA ready-SET-GO! Kit (eBioscience, cat #88-7316-22) based manufacturer's manuals.

Compound: CC(C)[C@H]1C[C@@H]1c1cc(-c2c[nH]c(=O)[nH]c2=O)nnc1Cl (relative stereo) [Example 8, 5-[6-Chloro-5-[rel-(1S,2R)-2-isopropylcyclopropyl]pyridazin-3-yl]-1H-pyrimidine-2,4-dione]
EC50 (CD73): 179 nM

Compound: O=c1[nH]cc(-c2cc([C@H]3CC3(F)F)c(Cl)nn2)c(=O)[nH]1 (single isomer, unassigned) [Example 9]
EC50 (CD73): 297 nM

Compound: Cc1nnc(-c2c[nH]c(=O)[nH]c2=O)cc1[C@H]1C[C@@H]1C(C)C [Example 2, 5-[5-[(1S,2R)-2-isopropylcyclopropyl]-6-methyl-pyridazin-3-yl]-1H-pyrimidine-2,4-dione]
Adenosine (uM) in the growth medium (human PBMCs or CD4 cells; compound 0.00229 uM): 0.28 µM
Rescue of T cell proliferation (%) (human PBMCs or CD4 cells; compound 0.00229 uM): −6%
Adenosine (uM) in the growth medium (human PBMCs or CD4 cells; compound 0.00686 uM): 0.28 µM
Rescue of T cell proliferation (%) (human PBMCs or CD4 cells; compound 0.00686 uM): −3%
Adenosine (uM) in the growth medium (human PBMCs or CD4 cells; compound 0.02058 uM): 0.21 µM
Rescue of T cell proliferation (%) (human PBMCs or CD4 cells; compound 0.02058 uM): −2%
Adenosine (uM) in the growth medium (human PBMCs or CD4 cells; compound 0.06173 uM): 0.15 µM
Rescue of T cell proliferation (%) (human PBMCs or CD4 cells; compound 0.06173 uM): 37%
Adenosine (uM) in the growth medium (human PBMCs or CD4 cells; compound 0.18519 uM): 0.086 µM
Rescue of T cell proliferation (%) (human PBMCs or CD4 cells; compound 0.18519 uM): 95%
Adenosine (uM) in the growth medium (human PBMCs or CD4 cells; compound 0.55556 uM): 0.046 µM
Rescue of T cell proliferation (%) (human PBMCs or CD4 cells; compound 0.55556 uM): 104%
Adenosine (uM) in the growth medium (human PBMCs or CD4 cells; compound 1.66667 uM): 0.027 µM
Rescue of T cell proliferation (%) (human PBMCs or CD4 cells; compound 1.66667 uM): 106%
Adenosine (uM) in the growth medium (human PBMCs or CD4 cells; compound 5.00 uM): 0.017 µM
Rescue of T cell proliferation (%) (human PBMCs or CD4 cells; compound 5.00 uM): 107%
inhibition at 1 mg/kg (murine CD73; 1 mg/kg oral): -10.6%
inhibition at 2.5 mg/kg (murine CD73; 2.5 mg/kg oral): 25.2%
inhibition at 6.4 mg/kg (murine CD73; 6.4 mg/kg oral): 37%
inhibition at 16 mg/kg (murine CD73; 16 mg/kg oral): 56.5%
inhibition at 40 mg/kg (murine CD73; 40 mg/kg oral): 88.6%
inhibition at 100 mg/kg (murine CD73; 100 mg/kg oral): 94.3%
INF-γ release, INF-γ (CD4^+ T cells; compound 0.003 uM): 34.5 pg/mL
TNF-α release, TNF-α (CD4^+ T cells; compound 0.003 uM): 386.3 pg/mL
INF-γ release, INF-γ (CD4^+ T cells; compound 0.008 uM): 29.5 pg/mL
TNF-α release, TNF-α (CD4^+ T cells; compound 0.008 uM): 419.9 pg/mL
INF-γ release, INF-γ (CD4^+ T cells; compound 0.025 uM): 51.1 pg/mL
TNF-α release, TNF-α (CD4^+ T cells; compound 0.025 uM): 557.8 pg/mL
INF-γ release, INF-γ (CD4^+ T cells; compound 0.074 uM): 59.4 pg/mL
TNF-α release, TNF-α (CD4^+ T cells; compound 0.074 uM): 782.0 pg/mL
INF-γ release, INF-γ (CD4^+ T cells; compound 0.222 uM): 146.7 pg/mL
TNF-α release, TNF-α (CD4^+ T cells; compound 0.222 uM): 1265.5 pg/mL
INF-γ release, INF-γ (CD4^+ T cells; compound 2.000 uM): 99.5 pg/mL
TNF-α release, TNF-α (CD4^+ T cells; compound 2.000 uM): 1183.9 pg/mL
INF-γ release, INF-γ (CD4^+ T cells; compound 6.000 uM): 105.3 pg/mL
TNF-α release, TNF-α (CD4^+ T cells; compound 6.000 uM): 1985.5 pg/mL

The remaining lines, values ahead:

EC50 (CD73): 212 nM
Compound: CC[C@H]1C[C@@H]1c1cc(-c2c[nH]c(=O)[nH]c2=O)nnc1C#N [Example 22, 6-(2,4-Dioxo-1H-pyrimidin-5-yl)-4-[(1S,2S)-2-ethylcyclopropyl]pyridazine-3-carbonitrile]

EC50 (CD73): 55 nM
Compound: O=c1[nH]cc(-c2cc([C@H]3C[C@@H]3C(F)F)c(Cl)nn2)c(=O)[nH]1 [Example 10, 5-[6-Chloro-5-[(1S,2S)-2-(difluoromethyl)cyclopropyl]pyridazin-3-yl]-1H-pyrimidine-2,4-dione]
